{"source": "ChEMBL document CHEMBL4507276", "about": "(2021)", "key": {"hERG (KCNH2)": {"biological_target": "hERG (KCNH2) (Homo sapiens, UniProt Q12809)", "sequence (Q12809 whole entry)": "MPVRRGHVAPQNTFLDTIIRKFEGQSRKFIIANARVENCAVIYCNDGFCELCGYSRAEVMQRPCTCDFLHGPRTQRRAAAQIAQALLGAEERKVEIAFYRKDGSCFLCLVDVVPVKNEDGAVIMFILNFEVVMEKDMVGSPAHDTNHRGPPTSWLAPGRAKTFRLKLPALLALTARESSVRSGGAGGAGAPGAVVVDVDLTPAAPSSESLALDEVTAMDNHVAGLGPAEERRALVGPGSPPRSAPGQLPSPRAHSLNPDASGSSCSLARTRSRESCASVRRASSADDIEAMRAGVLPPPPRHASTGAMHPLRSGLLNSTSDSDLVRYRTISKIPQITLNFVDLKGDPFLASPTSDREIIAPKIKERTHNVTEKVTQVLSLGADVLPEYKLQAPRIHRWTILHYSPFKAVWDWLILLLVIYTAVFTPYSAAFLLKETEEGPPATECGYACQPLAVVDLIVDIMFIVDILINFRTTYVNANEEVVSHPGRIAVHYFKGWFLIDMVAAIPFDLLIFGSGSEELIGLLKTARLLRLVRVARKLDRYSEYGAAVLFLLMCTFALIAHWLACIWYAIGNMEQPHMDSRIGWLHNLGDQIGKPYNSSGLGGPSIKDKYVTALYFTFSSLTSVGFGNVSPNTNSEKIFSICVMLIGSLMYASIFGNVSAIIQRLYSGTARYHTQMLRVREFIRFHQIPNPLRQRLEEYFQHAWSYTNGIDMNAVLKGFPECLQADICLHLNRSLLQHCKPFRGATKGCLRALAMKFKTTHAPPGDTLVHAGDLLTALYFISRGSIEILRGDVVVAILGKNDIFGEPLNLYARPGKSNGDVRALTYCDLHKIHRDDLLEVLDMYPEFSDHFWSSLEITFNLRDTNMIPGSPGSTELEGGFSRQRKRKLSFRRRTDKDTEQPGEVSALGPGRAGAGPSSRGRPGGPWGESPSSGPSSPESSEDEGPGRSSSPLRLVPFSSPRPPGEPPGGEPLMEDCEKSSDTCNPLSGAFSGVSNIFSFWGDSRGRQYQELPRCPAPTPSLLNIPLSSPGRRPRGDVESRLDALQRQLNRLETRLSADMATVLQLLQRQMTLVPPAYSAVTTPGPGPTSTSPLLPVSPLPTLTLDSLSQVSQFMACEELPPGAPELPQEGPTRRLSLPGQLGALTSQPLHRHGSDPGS", "assay": "K+/HERG Eurofins-Panlabs selectivity data (BI)", "conditions": "compound concentration 10 uM, read-out: % Ctrl; call rule not given here"}, "[1]": {"biological_target": "Tyrosine-protein kinase ABL1 (Homo sapiens) (UniProt P00519)", "assay": "ABL1 Invitrogen selectivity data (BI)", "conditions": "Compound concentration 3.0 uM"}, "[2]": {"biological_target": "Melanin-concentrating hormone receptor 1 (Homo sapiens) (UniProt Q99705)", "sequence (Q99705 whole entry)": "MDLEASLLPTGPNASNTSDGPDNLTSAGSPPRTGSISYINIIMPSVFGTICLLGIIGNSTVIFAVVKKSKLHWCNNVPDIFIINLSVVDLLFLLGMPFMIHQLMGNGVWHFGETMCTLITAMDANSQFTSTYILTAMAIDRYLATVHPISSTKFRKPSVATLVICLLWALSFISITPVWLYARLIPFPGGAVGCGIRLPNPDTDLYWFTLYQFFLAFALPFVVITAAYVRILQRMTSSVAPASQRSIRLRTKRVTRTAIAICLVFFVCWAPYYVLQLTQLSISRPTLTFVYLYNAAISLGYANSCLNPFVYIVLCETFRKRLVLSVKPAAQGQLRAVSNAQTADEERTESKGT", "assay": "MCH1H_AGON Cerep selectivity data (BI)", "conditions": "filed as agonist, Compound concentration 20.0 uM"}, "[3]": {"biological_target": "Adenosine receptor A3 (Homo sapiens) (UniProt P0DMS8)", "sequence (P0DMS8 whole entry)": "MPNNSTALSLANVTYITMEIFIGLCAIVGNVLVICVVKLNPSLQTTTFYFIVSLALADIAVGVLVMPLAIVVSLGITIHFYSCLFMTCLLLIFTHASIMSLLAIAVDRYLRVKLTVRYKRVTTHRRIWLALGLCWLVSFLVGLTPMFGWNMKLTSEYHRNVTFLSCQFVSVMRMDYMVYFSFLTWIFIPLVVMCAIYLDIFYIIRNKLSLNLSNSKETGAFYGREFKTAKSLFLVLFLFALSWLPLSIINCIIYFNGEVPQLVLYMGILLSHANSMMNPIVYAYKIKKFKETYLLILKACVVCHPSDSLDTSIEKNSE", "assay": "A3/H Eurofins-Panlabs selectivity data (BI)", "conditions": "Compound concentration 10.0 uM"}, "[4]": {"biological_target": "Beta-2 adrenergic receptor (Homo sapiens) (UniProt P07550)", "assay": "BETA2/HU Eurofins-Panlabs selectivity data (BI)", "conditions": "Compound concentration 10.0 uM"}, "[5]": {"biological_target": "5-hydroxytryptamine receptor 2B (Homo sapiens) (UniProt P41595)", "sequence (P41595 whole entry)": "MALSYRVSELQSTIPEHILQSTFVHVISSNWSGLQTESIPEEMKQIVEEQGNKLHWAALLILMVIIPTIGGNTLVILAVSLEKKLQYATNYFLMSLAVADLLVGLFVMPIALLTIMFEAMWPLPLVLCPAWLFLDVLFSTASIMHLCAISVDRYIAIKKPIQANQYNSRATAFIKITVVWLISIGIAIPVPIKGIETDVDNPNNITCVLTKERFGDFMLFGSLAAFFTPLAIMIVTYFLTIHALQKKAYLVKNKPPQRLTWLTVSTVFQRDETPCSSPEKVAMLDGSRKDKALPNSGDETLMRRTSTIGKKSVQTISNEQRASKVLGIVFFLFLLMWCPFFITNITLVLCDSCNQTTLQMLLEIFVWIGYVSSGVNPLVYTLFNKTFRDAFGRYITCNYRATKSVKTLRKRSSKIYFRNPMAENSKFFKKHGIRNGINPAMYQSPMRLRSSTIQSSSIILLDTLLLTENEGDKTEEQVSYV", "assay": "5HT2B/H AG Cerep selectivity data (BI)", "conditions": "filed as agonist, Compound concentration 20.0 uM"}, "[6]": {"biological_target": "Serine/threonine-protein kinase 26 (Homo sapiens) (UniProt Q9P289)", "sequence (Q9P289 2-416 limits assumed)": "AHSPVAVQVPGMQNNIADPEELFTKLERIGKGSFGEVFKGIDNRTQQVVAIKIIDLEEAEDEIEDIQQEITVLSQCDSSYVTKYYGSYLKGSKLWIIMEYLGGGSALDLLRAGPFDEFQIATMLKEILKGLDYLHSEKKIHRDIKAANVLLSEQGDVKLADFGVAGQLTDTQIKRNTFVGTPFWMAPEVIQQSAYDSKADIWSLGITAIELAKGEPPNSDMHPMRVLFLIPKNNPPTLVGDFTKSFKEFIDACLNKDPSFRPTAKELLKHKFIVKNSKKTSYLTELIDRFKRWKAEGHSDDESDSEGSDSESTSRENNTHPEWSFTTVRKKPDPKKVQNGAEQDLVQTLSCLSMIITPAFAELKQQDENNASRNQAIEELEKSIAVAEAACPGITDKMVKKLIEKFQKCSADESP", "assay": "MST4 Invitrogen selectivity data (BI)", "conditions": "Compound concentration 3.0 uM"}, "[7]": {"biological_target": "Gastrin/cholecystokinin type B receptor (Homo sapiens) (UniProt P32239)", "assay": "CCKB/H Cerep selectivity data (BI)", "conditions": "Compound concentration 20.0 uM"}, "[8]": {"biological_target": "T1, Mitogen-activated protein kinase kinase kinase 3 (Homo sapiens) (UniProt Q99759)", "T1 sequence (whole entry)": "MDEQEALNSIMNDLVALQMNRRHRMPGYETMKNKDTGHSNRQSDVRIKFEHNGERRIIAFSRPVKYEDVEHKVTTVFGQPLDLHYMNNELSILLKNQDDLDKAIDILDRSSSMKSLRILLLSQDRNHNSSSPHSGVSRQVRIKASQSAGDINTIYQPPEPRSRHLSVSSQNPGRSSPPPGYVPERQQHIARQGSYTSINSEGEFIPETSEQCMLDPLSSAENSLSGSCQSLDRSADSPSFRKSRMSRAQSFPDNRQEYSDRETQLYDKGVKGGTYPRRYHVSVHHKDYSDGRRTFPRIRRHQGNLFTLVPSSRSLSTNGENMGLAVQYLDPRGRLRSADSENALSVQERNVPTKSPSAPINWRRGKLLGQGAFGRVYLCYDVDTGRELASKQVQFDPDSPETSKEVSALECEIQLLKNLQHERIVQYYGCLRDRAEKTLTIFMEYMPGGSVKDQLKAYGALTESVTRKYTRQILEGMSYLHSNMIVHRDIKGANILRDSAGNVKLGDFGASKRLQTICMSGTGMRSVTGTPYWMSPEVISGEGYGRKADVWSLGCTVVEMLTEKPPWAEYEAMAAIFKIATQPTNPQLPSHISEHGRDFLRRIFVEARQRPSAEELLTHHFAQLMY", "assay": "MAP3K3 Invitrogen selectivity data (BI)", "conditions": "Compound concentration 3.0 uM"}, "[9]": {"biological_target": "T2, Alpha-1A adrenergic receptor (Homo sapiens) (UniProt P35348)", "T2 sequence (whole entry)": "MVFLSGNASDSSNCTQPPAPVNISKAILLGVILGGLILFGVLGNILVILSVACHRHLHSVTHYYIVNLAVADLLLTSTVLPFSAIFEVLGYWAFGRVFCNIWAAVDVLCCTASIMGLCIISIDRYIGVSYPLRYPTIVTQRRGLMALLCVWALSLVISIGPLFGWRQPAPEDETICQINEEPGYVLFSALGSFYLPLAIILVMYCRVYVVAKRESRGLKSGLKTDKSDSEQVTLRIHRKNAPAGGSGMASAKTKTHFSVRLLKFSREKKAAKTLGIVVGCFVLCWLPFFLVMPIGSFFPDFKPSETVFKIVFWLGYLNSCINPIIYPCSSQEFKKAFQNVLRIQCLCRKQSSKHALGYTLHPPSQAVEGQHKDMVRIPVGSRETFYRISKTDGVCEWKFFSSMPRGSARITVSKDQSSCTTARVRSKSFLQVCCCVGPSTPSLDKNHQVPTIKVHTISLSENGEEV", "assay": "ALPHA1AH_ANTAG Cerep selectivity data (BI)", "conditions": "filed as antagonist, Compound concentration 20.0 uM"}, "[10]": {"biological_target": "D(2) dopamine receptor (Homo sapiens) (UniProt P14416)", "assay": "D2SH_AGON Cerep selectivity data (BI)", "conditions": "filed as agonist, Compound concentration 20.0 uM"}, "[11]": {"biological_target": "Tyrosine-protein kinase Blk (Homo sapiens) (UniProt P51451)", "sequence (P51451 2-505 limits assumed)": "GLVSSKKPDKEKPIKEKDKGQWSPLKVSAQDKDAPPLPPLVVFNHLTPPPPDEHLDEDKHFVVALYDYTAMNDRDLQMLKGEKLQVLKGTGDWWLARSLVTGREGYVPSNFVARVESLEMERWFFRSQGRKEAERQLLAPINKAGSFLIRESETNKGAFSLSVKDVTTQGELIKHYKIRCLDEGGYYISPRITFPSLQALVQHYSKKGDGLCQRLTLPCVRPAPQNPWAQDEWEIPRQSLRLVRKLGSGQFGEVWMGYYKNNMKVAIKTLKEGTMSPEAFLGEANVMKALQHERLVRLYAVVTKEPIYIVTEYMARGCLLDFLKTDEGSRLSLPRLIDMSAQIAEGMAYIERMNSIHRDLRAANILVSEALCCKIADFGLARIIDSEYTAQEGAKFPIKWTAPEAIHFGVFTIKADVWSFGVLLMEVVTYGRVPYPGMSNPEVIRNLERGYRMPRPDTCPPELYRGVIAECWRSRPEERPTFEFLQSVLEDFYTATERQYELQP", "assay": "BLK Invitrogen selectivity data (BI)", "conditions": "Compound concentration 3.0 uM"}, "[12]": {"biological_target": "Endothelin-1 receptor (Homo sapiens) (UniProt P25101)", "assay": "ETA/HU Eurofins-Panlabs selectivity data (BI)", "conditions": "Compound concentration 10.0 uM"}, "[13]": {"biological_target": "PAS domain-containing serine/threonine-protein kinase (Homo sapiens) (UniProt Q96RG2)", "sequence (Q96RG2 whole entry, the tested form may be a part)": "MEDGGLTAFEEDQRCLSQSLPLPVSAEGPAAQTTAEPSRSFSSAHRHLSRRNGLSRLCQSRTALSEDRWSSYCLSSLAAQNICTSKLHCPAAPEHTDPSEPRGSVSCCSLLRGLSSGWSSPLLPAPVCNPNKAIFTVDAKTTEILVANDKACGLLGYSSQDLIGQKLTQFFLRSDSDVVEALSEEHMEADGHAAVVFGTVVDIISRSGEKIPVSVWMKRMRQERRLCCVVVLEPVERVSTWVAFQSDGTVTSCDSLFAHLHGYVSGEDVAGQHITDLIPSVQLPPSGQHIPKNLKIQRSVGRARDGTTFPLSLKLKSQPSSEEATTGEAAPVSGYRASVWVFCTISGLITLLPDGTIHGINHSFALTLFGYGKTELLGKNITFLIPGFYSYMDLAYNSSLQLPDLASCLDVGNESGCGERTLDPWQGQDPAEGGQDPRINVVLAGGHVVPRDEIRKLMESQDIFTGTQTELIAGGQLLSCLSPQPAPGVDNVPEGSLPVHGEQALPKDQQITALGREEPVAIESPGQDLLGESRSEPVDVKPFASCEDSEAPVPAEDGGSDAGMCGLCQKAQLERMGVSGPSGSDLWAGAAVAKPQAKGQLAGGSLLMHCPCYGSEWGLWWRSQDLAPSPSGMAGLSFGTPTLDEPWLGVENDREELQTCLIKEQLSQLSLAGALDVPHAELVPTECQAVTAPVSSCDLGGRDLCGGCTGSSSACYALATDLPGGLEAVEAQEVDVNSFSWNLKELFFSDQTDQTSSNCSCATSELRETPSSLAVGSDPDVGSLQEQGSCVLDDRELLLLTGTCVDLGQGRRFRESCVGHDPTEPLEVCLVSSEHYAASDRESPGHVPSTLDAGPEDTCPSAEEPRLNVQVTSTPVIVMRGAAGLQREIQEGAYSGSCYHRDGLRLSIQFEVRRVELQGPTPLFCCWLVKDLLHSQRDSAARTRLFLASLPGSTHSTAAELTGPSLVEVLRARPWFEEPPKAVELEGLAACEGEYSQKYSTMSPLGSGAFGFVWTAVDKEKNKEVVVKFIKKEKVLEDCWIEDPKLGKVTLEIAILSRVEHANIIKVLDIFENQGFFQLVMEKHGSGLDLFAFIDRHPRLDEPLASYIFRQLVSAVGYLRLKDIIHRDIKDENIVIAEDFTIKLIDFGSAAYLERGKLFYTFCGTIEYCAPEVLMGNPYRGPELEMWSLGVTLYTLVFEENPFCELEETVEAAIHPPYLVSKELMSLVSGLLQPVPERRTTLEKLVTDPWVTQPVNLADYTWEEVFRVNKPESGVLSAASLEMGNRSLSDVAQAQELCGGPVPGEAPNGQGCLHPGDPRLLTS", "assay": "PASK Invitrogen selectivity data (BI)", "conditions": "Compound concentration 3.0 uM"}, "[14]": {"biological_target": "Rho-associated protein kinase 1 (Homo sapiens) (UniProt Q13464)", "assay": "ROCK1 Invitrogen selectivity data (BI)", "conditions": "Compound concentration 3.0 uM"}, "[15]": {"biological_target": "Adenosine receptor A3 (Homo sapiens) (UniProt P0DMS8)", "assay": "A3/H Cerep selectivity data (BI)", "conditions": "Compound concentration 20.0 uM"}, "[16]": {"biological_target": "Mitogen-activated protein kinase 10 (Homo sapiens) (UniProt P53779)", "sequence (P53779 whole entry)": "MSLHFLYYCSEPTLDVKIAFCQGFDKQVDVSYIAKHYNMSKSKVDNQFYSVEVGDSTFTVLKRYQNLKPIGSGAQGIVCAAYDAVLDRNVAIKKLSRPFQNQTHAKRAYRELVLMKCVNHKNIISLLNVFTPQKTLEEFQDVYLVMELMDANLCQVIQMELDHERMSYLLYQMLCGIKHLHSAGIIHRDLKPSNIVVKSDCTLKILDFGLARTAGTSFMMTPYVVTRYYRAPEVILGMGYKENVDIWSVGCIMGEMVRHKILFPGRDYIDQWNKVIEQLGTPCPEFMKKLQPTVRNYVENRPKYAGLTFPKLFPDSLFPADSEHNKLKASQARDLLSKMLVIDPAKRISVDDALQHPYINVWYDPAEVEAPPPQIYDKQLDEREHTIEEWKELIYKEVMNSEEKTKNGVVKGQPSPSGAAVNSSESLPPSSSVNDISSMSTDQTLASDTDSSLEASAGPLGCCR", "assay": "MAPK10 Invitrogen selectivity data (BI)", "conditions": "Compound concentration 3.0 uM"}, "[17]": {"biological_target": "MAP/microtubule affinity-regulating kinase 3 (Homo sapiens) (UniProt P27448)", "assay": "MARK3 Invitrogen selectivity data (BI)", "conditions": "Compound concentration 3.0 uM"}, "[18]": {"biological_target": "Cannabinoid receptor 2 (Homo sapiens) (UniProt P34972)", "assay": "CB2/PERIPH/H Cerep selectivity data (BI)", "conditions": "Compound concentration 20.0 uM"}, "[19]": {"biological_target": "T3, Interleukin-1 receptor-associated kinase 4 (Homo sapiens) (UniProt Q9NWZ3)", "T3 sequence (whole entry)": "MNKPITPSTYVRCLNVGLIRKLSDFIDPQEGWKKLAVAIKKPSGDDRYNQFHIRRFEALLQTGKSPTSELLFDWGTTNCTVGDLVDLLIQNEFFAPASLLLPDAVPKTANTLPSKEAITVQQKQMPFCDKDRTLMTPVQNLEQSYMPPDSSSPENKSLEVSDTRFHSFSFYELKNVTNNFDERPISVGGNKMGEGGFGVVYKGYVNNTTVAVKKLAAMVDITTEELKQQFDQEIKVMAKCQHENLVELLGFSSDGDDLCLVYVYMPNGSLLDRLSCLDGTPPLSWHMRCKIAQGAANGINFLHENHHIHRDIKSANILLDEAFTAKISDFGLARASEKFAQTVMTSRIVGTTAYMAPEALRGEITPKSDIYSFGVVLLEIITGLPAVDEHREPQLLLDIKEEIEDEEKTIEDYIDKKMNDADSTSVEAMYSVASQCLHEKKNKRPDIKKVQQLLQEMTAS", "assay": "IRAK4 Invitrogen selectivity data (BI)", "conditions": "Compound concentration 3.0 uM"}, "[20]": {"biological_target": "D(3) dopamine receptor (Homo sapiens) (UniProt P35462)", "assay": "D3/HU Eurofins-Panlabs selectivity data (BI)", "conditions": "Compound concentration 10.0 uM"}}}
{"molecule": "CN(C)C(=O)Cn1cc(-c2nc([C@@](C)(c3ccc(-c4cnc(N)nc4)cc3)C3CC3)no2)cn1", "note": "[BI 665915]", "values": [{"measurement": "activity at 10 µM", "setting": "hERG (KCNH2)", "result": "90% (not active)"}, {"measurement": "residual activity", "setting": "[1]", "result": 84, "unit": "%"}, {"measurement": "residual activity", "setting": "[2]", "result": 116, "unit": "%"}, {"measurement": "residual activity", "setting": "[3]", "result": 88, "unit": "%"}, {"measurement": "residual activity", "setting": "[4]", "result": 101, "unit": "%"}, {"measurement": "residual activity", "setting": "[5]", "result": 103, "unit": "%"}, {"measurement": "residual activity", "setting": "[6]", "result": 99, "unit": "%"}, {"measurement": "residual activity", "setting": "[7]", "result": 119, "unit": "%"}, {"measurement": "residual activity", "setting": "[8]", "result": 101, "unit": "%"}, {"measurement": "residual activity", "setting": "[9]", "result": 99, "unit": "%"}, {"measurement": "residual activity", "setting": "[10]", "result": 95, "unit": "%"}, {"measurement": "residual activity", "setting": "[11]", "result": 88.5, "unit": "%"}, {"measurement": "residual activity", "setting": "[12]", "result": 98, "unit": "%"}, {"measurement": "residual activity", "setting": "[13]", "result": 100, "unit": "%"}, {"measurement": "residual activity", "setting": "[14]", "result": 99.5, "unit": "%"}, {"measurement": "residual activity", "setting": "[15]", "result": 64, "unit": "%"}, {"measurement": "residual activity", "setting": "[16]", "result": 96, "unit": "%"}, {"measurement": "residual activity", "setting": "[17]", "result": 98, "unit": "%"}, {"measurement": "residual activity", "setting": "[18]", "result": 93, "unit": "%"}, {"measurement": "residual activity", "setting": "[19]", "result": 102, "unit": "%"}, {"measurement": "residual activity", "setting": "[20]", "result": 97, "unit": "%"}]}
